The text below walks through data of patent publication US20040192611A1, “Peptide antioxidants from soy protein” (Kraft Foods Holdings, Inc., priority 2003, published 2004).

This assay is described as follows: Antioxidant activity of soy-derived peptides isolated by HPLC (assay not specified). As to conditions: qualitative statement. From the text:
In another aspect, the invention is directed to a method of producing a peptide with antioxidant activity. The peptide is made by digesting soy protein isolate (available commercially, e.g., from Protein Technology International, St. Louis, Mo., or using procedures well established in the art) with a protease to produce an aqueous hydrolysate solution. Proteases that may be used for digestion include chymosin, papain, neutrase, promod, and flavozyme and, preferably, either alcalase or corolase. The protease may come from bacterial, plant or fungal sources. The aqueous hydrolysate solution is extracted with an organic solvent, preferably acetone, and the organic phase is selected for further processing. After extraction, solvent may be removed under reduced pressure to concentrate the peptide and the preparation is then fractionated by reverse phase high pressure liquid chromatography (HPLC). Fractions collected during this process may be assayed for antioxidant activity using methods such as those described in the Examples section herein. The identification of fractions containing the peptide may be based upon the presence of antioxidant activity and upon retention time during chromatography. The identity of the peptide within fractions can be confirmed by sequence analysis.
After recovering peptide from the extraction, reverse phase high pressure liquid chromatography may be performed using, for example, a C18 column. […] Fractions collected from the column may be tested for antioxidant activity to identify peaks that are of interest. Finally, specific peptides may be identified by carrying out sequencing experiments.
Fractions with antioxidant activity are collected and subjected to further purification. This is carried out using the mobile phases:
Fractions with antioxidant activity are collected and subject to further purification. In this case, the same mobile phases are used. The flow rate is set at 0.4 ml/min and ultraviolet absorbance is set at 275 nm. The gradient elution program is set as follows: […]

Regarding WWMY (Glycine max), the antioxidant activity result was “found to have antioxidant activity”.

On to WTY, for which the antioxidant activity result was “found to have antioxidant activity”.

For SWWPF (Glycine max), the antioxidant activity result was “found to have antioxidant activity”.
